US5693628A, “11-benzaldoxime-estra-diene derivatives, methods for their production and pharmaceuticals containing these compounds” (priority 1994, dated 1997)

What was measured:
[1] = target: T1, progesterone receptor (Oryctolagus cuniculus, UniProt P06186); assay: relative molar bonding affinity to progesterone receptor (competitive bonding); format: binding; conditions: progesterone = 100%; uterine cytosol of estradiol-primed rabbit; 3H-ORG 2058, 5 nM; 18 h, 0-4° C.
T1 construct: uterine cytosol of the estradiol-primed rabbit; from tissue; host or cells: uterus (cytosol) of estradiol-primed rabbit
T1 sequence (P06186 1-930): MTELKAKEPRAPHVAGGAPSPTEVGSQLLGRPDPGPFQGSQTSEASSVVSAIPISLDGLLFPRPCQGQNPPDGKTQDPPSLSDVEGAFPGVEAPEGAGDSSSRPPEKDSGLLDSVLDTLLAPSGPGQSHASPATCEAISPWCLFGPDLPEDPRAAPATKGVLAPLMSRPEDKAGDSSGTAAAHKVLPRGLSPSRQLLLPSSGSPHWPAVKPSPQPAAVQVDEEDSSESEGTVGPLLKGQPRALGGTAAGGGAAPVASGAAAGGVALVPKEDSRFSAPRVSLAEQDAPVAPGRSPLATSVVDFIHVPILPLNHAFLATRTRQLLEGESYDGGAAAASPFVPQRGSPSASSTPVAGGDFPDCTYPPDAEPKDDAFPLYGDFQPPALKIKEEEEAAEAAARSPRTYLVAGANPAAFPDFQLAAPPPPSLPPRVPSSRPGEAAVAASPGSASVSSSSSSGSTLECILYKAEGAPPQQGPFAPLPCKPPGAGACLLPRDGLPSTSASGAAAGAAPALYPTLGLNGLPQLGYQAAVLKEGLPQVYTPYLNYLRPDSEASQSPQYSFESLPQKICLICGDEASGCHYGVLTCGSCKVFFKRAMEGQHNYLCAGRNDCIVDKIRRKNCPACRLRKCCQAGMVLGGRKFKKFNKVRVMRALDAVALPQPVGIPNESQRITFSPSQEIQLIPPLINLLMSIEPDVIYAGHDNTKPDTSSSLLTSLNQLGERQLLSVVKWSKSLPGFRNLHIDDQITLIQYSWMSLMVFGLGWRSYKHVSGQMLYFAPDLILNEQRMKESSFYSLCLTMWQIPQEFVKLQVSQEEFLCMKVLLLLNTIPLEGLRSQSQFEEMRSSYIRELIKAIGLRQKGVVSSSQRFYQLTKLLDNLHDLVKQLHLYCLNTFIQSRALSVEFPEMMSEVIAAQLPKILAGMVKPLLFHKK
Experimental: (§1) Measurement of bonding affinity for receptors
(§2) Receptor bonding affinity was determined by competitive bonding of a specifically binding ^3 H labelled hormone (tracer) and the compound to be tested to receptors in the cytosol from animal target organs. It was tried to obtain receptor saturation and a balanced reaction. The following incubation conditions were selected:
Progesterone receptor: uterine cytosol of the estradiol-primed rabbit, kept at -30° C. in TED buffer (20 mM Tris/HCl, pH 7.4; 1 mM ethylene diamine tetraacetate, 2 mM dithio threitol) with 250 mM of saccharose.
(§3) After an incubation period of 18 hours at 0°-4° C., bonded and free steroid was separated by mixing in active carbon/dextrane (1%/0.1%), centrifuging off and measuring the bonded ^3 H activity in the supernatant.
(§4) The IC50 for the compound to be tested and for the reference substance were determined from measurements in series of concentrations.

[2] = target: T2, glucocorticoid receptor (Rattus norvegicus, UniProt P06536); assay: relative molar bonding affinity to glucocorticoid receptor (competitive bonding); format: binding; conditions: dexamethasone = 100%; thymus cytosol of adrenalectomized rat; 3H-dexamethasone, 20 nM; 18 h, 0-4° C.
T2 construct: thymus cytosol of the adrenalectomized rat; from tissue; host or cells: thymus (cytosol) of adrenalectomized rat
T2 sequence (P06536 1-795): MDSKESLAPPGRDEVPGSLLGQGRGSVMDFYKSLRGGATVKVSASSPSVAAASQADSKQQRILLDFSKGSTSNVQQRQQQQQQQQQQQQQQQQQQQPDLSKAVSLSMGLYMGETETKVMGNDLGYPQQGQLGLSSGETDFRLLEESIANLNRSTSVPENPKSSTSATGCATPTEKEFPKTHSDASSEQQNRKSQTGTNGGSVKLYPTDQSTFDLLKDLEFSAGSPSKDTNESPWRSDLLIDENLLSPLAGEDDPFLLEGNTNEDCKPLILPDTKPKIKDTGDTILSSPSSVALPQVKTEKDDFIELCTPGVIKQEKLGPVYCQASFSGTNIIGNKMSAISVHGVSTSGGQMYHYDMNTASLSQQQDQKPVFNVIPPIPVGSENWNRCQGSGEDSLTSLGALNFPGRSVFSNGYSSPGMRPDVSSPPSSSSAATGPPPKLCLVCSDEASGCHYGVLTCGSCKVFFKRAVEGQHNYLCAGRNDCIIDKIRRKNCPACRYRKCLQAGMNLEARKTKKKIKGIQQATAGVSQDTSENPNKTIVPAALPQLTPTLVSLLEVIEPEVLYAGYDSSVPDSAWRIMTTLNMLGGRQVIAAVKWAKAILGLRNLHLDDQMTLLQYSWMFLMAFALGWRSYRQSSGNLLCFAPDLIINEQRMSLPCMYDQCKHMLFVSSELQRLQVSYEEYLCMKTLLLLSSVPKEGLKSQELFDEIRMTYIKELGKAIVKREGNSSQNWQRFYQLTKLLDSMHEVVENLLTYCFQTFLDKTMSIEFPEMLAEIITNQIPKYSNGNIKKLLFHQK
Experimental: as §1, §2
Glucocorticoid receptor: thymus cytosol of the adrenalectomized rat, thymi kept at -30° C., buffer: TED. Tracer: ^3 H-dexamethasone, 20 nM; reference substance: dexamethasone.
as §3, §4

[3] = target: T3, oestrogen receptor (Oryctolagus cuniculus, UniProt G1SML6); assay: relative molar bonding affinity to oestrogen receptor (competitive bonding); format: binding; conditions: estradiol = 100%; uterine cytosol of immature rabbit; 3H-ethinyl estradiol, 3 nM; 18 h, 0-4° C.
T3 construct: uterine cytosol of the immature rabbit; from tissue; host or cells: uterus (cytosol) of immature rabbit
T3 sequence (G1SML6 1-598): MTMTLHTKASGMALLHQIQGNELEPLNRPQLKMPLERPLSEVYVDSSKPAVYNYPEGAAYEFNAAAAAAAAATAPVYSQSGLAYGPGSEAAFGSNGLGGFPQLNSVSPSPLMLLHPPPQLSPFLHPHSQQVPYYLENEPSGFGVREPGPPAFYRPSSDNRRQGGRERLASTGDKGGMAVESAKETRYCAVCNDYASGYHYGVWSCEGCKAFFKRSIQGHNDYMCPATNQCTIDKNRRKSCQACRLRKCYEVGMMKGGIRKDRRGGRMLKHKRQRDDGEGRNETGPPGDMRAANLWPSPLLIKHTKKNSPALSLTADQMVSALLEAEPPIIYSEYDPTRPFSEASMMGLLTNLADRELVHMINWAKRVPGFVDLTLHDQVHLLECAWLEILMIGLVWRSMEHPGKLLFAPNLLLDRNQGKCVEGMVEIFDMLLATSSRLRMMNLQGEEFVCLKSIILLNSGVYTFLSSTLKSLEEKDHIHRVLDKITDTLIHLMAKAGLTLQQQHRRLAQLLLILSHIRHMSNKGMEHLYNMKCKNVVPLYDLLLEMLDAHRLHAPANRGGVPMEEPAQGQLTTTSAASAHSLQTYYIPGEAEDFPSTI
Experimental: as §1, §2
Oestrogen receptor: uterine cytosol of the immature rabbit, kept at -30° C. in TED buffer with 250 mM of saccharose. Tracer: ^3 H-ethinyl estradiol, 3 nM; reference substance: 17β-estradiol.
as §3
The IC50 for the compound to be tested and for the reference substance were determined from measurements in series of concentrations. The quotient of both values (×100%) is the relative molar bonding affinity.

[4] = test system: early gravidity in the rat; assay: Early abortive effect / inhibition of early gravidity in the rat; format: in vivo; conditions: 5th to 7th day of pregnancy; for complete gravidity inhibition % / complete gravidity inhibition N*/N (females not pregnant/inseminated females): empty uteri
Experimental: Inhibition of early gravidity in the rat
Female rats are mated in the pro-oestrus. If semen is found in the vaginal smear on the next day, this day is counted as day 1 (=d1) of the gravidity. Treatment with the test substance or vehicle is applied on d5-d7, autopsy is carried out on d9. The substances are injected subcutaneously in 0.2 ml of vehicle (benzyl benzoate/castor oil 1+4).

[5] = test system: uterine weight in cyclic guinea pigs; assay: Influence on uterine weight in cyclic guinea pigs; format: in vivo, guinea pig
Source text: FIG. 1. is a chart showing a comparison of the influence on uterine weight in cyclic guineau pigs when treated with the antigestagen agents RU 486, a control (the vehicle), and a compound of the present invention, J 867 (as prepared in accordance with Example 1).
FIG. 1 compares the influence of antigestagen treatment of cyclic guinea pigs on uterine weights for J 867 and RU 486.
Treatment of female guinea pigs with antigestagen
Treatment of adult female guinea pigs from day 10 to day 18 of the cycle (autopsy). Administration of the specified doses using subcutaneous osmotic pumps (Type 2 ML1 ALZET). Vehicle: […] propylene glycol/24 hrs.

Row | SMILES | relative molar bonding affinity (RBA) to progesterone receptor [1] [%] | relative molar bonding affinity (RBA) to glucocorticoid receptor [2] [%] | relative molar bonding affinity (RBA) to oestrogen rec. [3] [%] | further results
1 | CCOC(=O)ON=Cc1ccc([C@H]2C[C@@]3(C)[C@@H](CC[C@]3(COC)OC)[C@@H]3CCC4=CC(=O)CCC4=C32)cc1 [Example 4] | 294 | 66 | < 0.1 | 
2 | COC[C@]1(OC)CC[C@H]2[C@@H]3CCC4=CC(=O)CCC4=C3[C@@H](c3ccc(C=NOC(C)=O)cc3)C[C@@]21C [Example 3, 11β-[4-(acetyloximinomethyl)phenyl]-17β-methoxy-17α-methoxymethyl-estra-4,9-diene-3-on] | 236 | 73 | < 0.1 | 
3 | COC[C@]1(OC)CC[C@H]2[C@@H]3CCC4=CC(=O)CCC4=C3[C@@H](c3ccc(C=NOC)cc3)C[C@@]21C [Example 2, 11β-[4-(methoximinomethyl)phenyl]-17β-methoxy-17α-methoxymethyl-estra-4,9-diene-3-on] | 136 | 82 | < 0.1 | 
4 | CN(C)c1ccc([C@H]2C[C@]3(C)[C@@H](CC[C@]3(O)CCCO)[C@@H]3CCC4=CC(=O)CCC4=C32)cc1 [ZK 98299, Onapristone, reference compound] | 22 | 39 |  | 
5 | CC#C[C@]1(O)CC[C@H]2[C@@H]3CCC4=CC(=O)CCC4=C3[C@@H](c3ccc(N(C)C)cc3)C[C@@]21C [RU 486, Mifepristone, reference compound] |  | 685 |  | complete gravidity inhibition % ([4]; 0.3 mg/animal/day s.c.): 0%; complete gravidity inhibition N*/N (females not pregnant/inseminated females) ([4]; 0.3 mg/animal/day s.c.): 0/5; complete gravidity inhibition % ([4]; 1.0 mg/animal/day s.c.): 40%; complete gravidity inhibition N*/N (females not pregnant/inseminated females) ([4]; 1.0 mg/animal/day s.c.): 2/5; complete gravidity inhibition % ([4]; 3.0 mg/animal/day s.c.): 100%; complete gravidity inhibition N*/N (females not pregnant/inseminated females) ([4]; 3.0 mg/animal/day s.c.): 5/5; ED 50 ([4]; s.c., graphic determination): 1.3 mg/animal/day; uterine weights of cyclic guinea pigs, high dose ([5]; 6 mg/24 hrs, s.c. osmotic pump, day 10 to 18 of cycle): reduce the uterine weights of the treated animals; uterine weights in the anovulatorial cycle in guinea pigs ([5]; doses at which RU 486 increases uterine weights, compared with control animals): increases uterine weights; uterine weights of cyclic guinea pigs, low dose ([5]; low dosis, s.c. osmotic pump, day 10 to 18 of cycle): slight gain in uterine weights
6 | C[C@]12C[C@H](c3ccc(C=NO)cc3)C3=C4CCC(=O)C=C4CC[C@H]3[C@@H]1CC[C@@]2(O)CCl [Example 5, 17α-chloromethyl-11β-[4-(hydroximinomethyl)phenyl]-17β-hydroxy-estra-4,9-diene-3-on] | 90 | 32 | < 0.1 | 
